Reference: US20230399661A1, “SHUTTLE AGENT PEPTIDES OF MINIMAL LENGTH AND VARIANTS THEREOF ADAPTED FOR TRANSDUCTION OF CAS9-RNP AND OTHER NUCLEOPROTEIN CARGOS” (priority 2020, published 2023)

Experiments:
Format in all cases: cell-based, Human
HeLa cells [1] = assay: Large-scale screening for propidium iodide (PI) transduction activity, flow cytometry; details: data not shown
Description: HeLa cells were plated (20 000 cells/well) in a 96 well-plate the day prior to the experiment in DMEM containing 10% FBS. Each delivery mix comprising a synthetic peptide shuttle agent (10-30 μM) and the propidium iodide (PI) (10 μg/mL) were prepared and completed to 50 μL with PBS. Cells were washed once with PBS and the shuttle/PI mix was added to the cells and incubated for one minute. Then 100 μL DMEM containing 10% FBS was added to the mix. Cells were then immediately washed once with PBS and incubated in DMEM containing 10% FBS for two hours. Cells were then analyzed by flow cytometry. […]
Due to the large number of peptides screened, negative controls were performed in parallel for each experimental batch and included a “no treatment” (NT) control in which the cells were not exposed to shuttle peptide or cargo, as well as a “cargo alone” control in which cells were exposed to the cargo in the absence of shuttle agent. […] Mean PI or GFP-NLS delivery score was calculated by multiplying the mean fluorescence intensity (of at least duplicate samples) measured for the viable PI+ or GFP+ cells by the mean percentage of viable PI+ or GFP+ cells, divided by 100,000 for GFP delivery or by 10,000 for PI delivery. […]

CFF-16HBEge cells [2] = assay: ABE-Cas9-RNP delivery, base editing evaluated by next-generation sequencing; details: NGS
Description: (§1) For Cas9-RNP or ABE-Cas9-RNP transduction, a mix of Cas9-NLS or ABE-Cas9 recombinant protein (2.5 μM) complexed with a crRNA/tracrRNA (2 μM) targeting the beta-2 microglobulin (B2M) gene were co-incubated with 10-20 μM of synthetic peptide shuttle agent in a final volume of 50 μL completed with PBS. Cells were washed once with PBS and the shuttle/Cas9-RNP complex was added to the cells for and incubated for 60 to 90 seconds. Then 100 μL of DMEM (HeLa) or Alpha-MEM (CFF-16HBEge) containing 10% FBS was added to the mix. Cells were then immediately washed once with PBS and incubated in DMEM (HeLa) or Alpha-MEM (CFF-16HBEge) containing 10% FBS.
(§2) Further transduction experiments in CFF-16HBEge cells were performed to compare the ability of shuttle agents to deliver functional Cas9-RNP genome editing versus ABE-Cas9-RNP base editing complexes. Variants of the shuttle agent FSD10 (FIG. 8A) were tested in parallel, and genome editing/base editing results as evaluated by next-generation sequencing (NGS) are shown in FIGS. 8B and 8C for Cas9-RNP and ABE-Cas9-RNP, respectively.

HeLa cells [3] = assay: GFP-NLS transduction in the presence or absence of Cas9-RNP complex, flow cytometry
Description: (§3) HeLa cells were plated (20 000 cells/well) in a 96 well-plate the day prior to the experiment in DMEM containing 10% FBS. A mix was prepared containing a synthetic peptide shuttle agent (10-30 μM), the GFP-NLS (10 μM) with or without a Cas9-NLS recombinant protein (2.5 μM) complexed with a crRNA/tracrRNA (2 μM) targeting the beta-2 microglobulin (B2M) gene and completed to 50 μL with PBS. Cells were washed once with PBS and the shuttle/GFP-NLS/Cas9-RNP mix was added to the cells and incubated for one minute. Then 100 μL DMEM containing 10% FBS was added to the mix. Cells were then immediately washed once with PBS and incubated in DMEM containing 10% FBS for two hours. Cells were the analyzed by flow cytometry.
To better understand the inhibitory effect of Cas9-RNP on shuttle agent transduction activity, HeLa cells were incubated with different peptides/shuttle agents and GFP cargo, in the presence or absence of Cas9-RNP, and delivery of GFP was assessed by flow cytometry, as described in Example 1. […] For some shuttle agents, the effect was particularly striking. For example, the GFP transduction efficiency for FSD268 decreased from 92% to 29%, the GFP transduction efficiency for FSD250 decreased from 83% to 13%, the GFP transduction efficiency for FSD10 decreased from 76% to 22%, and the GFP transduction efficiency for FSD395 decreased from 91% to 17%. […] Structure-activity relationships were explored further by repeating the above transduction experiments with shuttle agent variants sharing the same “core” amphipathic cationic alpha helical region as FSD10-15 (FIG. 4A), CM18 (FIG. 4B), and FSD356 (FIG. 4C).

CFF-16HBEge cells [4] = assay: Cas9-RNP delivery, B2M genome editing; details: B2M knockout, versus non-treated negative control
Description: HeLa cells were plated (10 000 cells/well) in a 96 well-plate the day prior to the experiment in DMEM containing 10% FBS. CFF-16HBEge cells were plated (10 000 cells/well) in a 96 well-plate the day prior to the experiment in Alpha-MEM containing 10% FBS.
as §1
Genome editing events resulting in the absence of B2M protein (knockout) at the cell surface were determined by flow cytometry 6 days post-transduction. Cells were washed once with PBS and incubated with the anti-B2 microglobulin antibody (PE conjugated) (0.5 μL of anti-B2M-PE in […] 0.5% BSA/PBS) for 45 minutes at room temperature. Cells were washed twice with PBS and detached with 50 µL of Trypsin-EDTA for 10 minutes at 37° C. then inactivated by adding 100 μL of media containing 10% FBS. The percentage of knockout cells (cells without B2M antibody signal) was determined by flow cytometry.
A similar genome editing experiment as in Example 6 was performed in the Human Bronchial Epithelial cell line model of cystic fibrosis, CFF-16HBEge.
as §2

CFF-16HBEge cells [5] = assay: GFP transduction in the presence or absence of Cas9-RNP in CFF-16HBEge cells
Description: as §3
The above transduction experiments were repeated with FSD10 and FSD375 in a Human Bronchial Epithelial cell line model of cystic fibrosis, CFF-16HBEge.

Substance | PI transduction efficiency relative to cargo alone negative control (HeLa cells [1]) | base editing efficiency (ABE-Cas9-RNP) (CFF-16HBEge cells [2]) | GFP transduction activity relative to FSD10-15 (HeLa cells [3]; FIG. 4A) | resistance/sensitivity of GFP transduction to inhibition by Cas9-RNP (HeLa cells [3]; presence vs absence of Cas9-RNP) | genome editing with Cas9-RNP as cargo (CFF-16HBEge cells [4]) | resistance to Cas9-RNP inhibition of GFP transduction (CFF-16HBEge cells [5])
FSD174 Scramble: negative control peptide known to have low or no GFP transduction activity (LGRSGRIKIGGWSALASRARQARGLKIWTQGRL; FSD174 Scramble) | lower transduction efficiencies for PI |  |  |  |  | 
FSD375: FSD10-15 with flanking glycine/serine-rich residues (GGSGGGSKWKLARAFARAIKKLGGSGGGS; FSD375) |  | about 15% | improving GFP transduction activity over FSD10-15 | retained the peptide's resistance to Cas9-RNP | significant genome editing | greater resistance to Cas9-RNP inhibition than FSD10
